Results: ChEMBL document CHEMBL1201862, “PubChem BioAssay data set” (2004)
Several values for one entry are separate records, joined by “and”; a condition that tells them apart may be missing. Equal values may be shown once.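 Growth conditions: 96-well plates. Treatment: test compound, 48 hours, 5 concentrations. Analysis: linear interpolation between bracketing concentrations; unreached endpoints set to highest concentration. Here, GI50 denotes the concentration required for 50% inhibition of growth.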 Activity calls are given as the source filed them. No stated cut-off is given here; in the data, active = GI50 up to about 1.1 µM and inactive = higher.

How the values were obtained:
Assay in all cases: DTP human tumour cell line panel, 48 h
786-0 = test system: 786-0
EKVX = test system: EKVX
HCT-15 = test system: HCT-15
M14 = test system: M14
MDA-MB-435 = test system: MDA-MB-435
MDA-N = test system: MDA-N
MOLT-4 = test system: MOLT-4
NCI-H522 = test system: NCI-H522
OVCAR-5 = test system: OVCAR-5
PC-3 = test system: PC-3
RXF 393 = test system: RXF 393
SF-268 = test system: SF-268
SF-539 = test system: SF-539
SK-MEL-28 = test system: SK-MEL-28
SNB-75 = test system: SNB-75
SR = test system: SR
SW-620 = test system: SW-620
UACC-257 = test system: UACC-257
COLO 205 = test system: COLO 205
HOP-92 = test system: HOP-92

SMILES	GI50 (786-0)	GI50 (EKVX)	GI50 (HCT-15)	GI50 (M14)	GI50 (MDA-MB-435)	GI50 (MDA-N)	GI50 (MOLT-4)	GI50 (NCI-H522)	GI50 (OVCAR-5)	GI50 (PC-3)	GI50 (RXF 393)	GI50 (SF-268)	GI50 (SF-539)	GI50 (SK-MEL-28)	GI50 (SNB-75)	GI50 (SR)	GI50 (SW-620)	GI50 (UACC-257)	GI50 (COLO 205)	GI50 (HOP-92)
Cn1cc(S(=O)(=O)NC(=O)Nc2ccc(Cl)cc2)c(=O)c2ccc(Cl)cc21	> 100 µM (inactive)	> 100 µM (inactive)	25.7 µM	> 100 µM (inactive)	48.5 µM (inactive)	> 100 µM (inactive)	85.5 µM (inactive)	20.9 µM (inactive)	> 100 µM (inactive)	76.6 µM (inactive)	> 100 µM (inactive)	> 100 µM (inactive)	> 100 µM (inactive)	> 100 µM (inactive)	> 100 µM (inactive)	43.8 µM (inactive)	> 100 µM (inactive)	> 100 µM (inactive)		
CCCCCCCCCCCCCCCCOCC(CCl)OP(=O)(O)OP(=O)(O)OCC1OC(n2ccc(N)nc2=O)C(O)C1O (configuration not stated)	> 100 µM (inactive)	> 100 µM (inactive)	> 100 µM	> 100 µM (inactive)	> 100 µM (inactive)	> 100 µM (inactive)	> 100 µM (inactive)	> 100 µM (inactive)	> 100 µM (inactive)	87.7 µM (inactive)	> 100 µM (inactive)	> 100 µM (inactive)	> 100 µM (inactive)	99.3 µM (inactive)	6.07 µM (inactive)		> 100 µM (inactive)	> 100 µM (inactive)	> 100 µM (inactive)	> 100 µM (inactive)
Nc1ccc(-c2nc3cc(F)ccc3s2)cc1CO	30.9 µM (inactive)	17.8 µM (inactive)	41 µM	> 49.5 µM (inactive)	> 100 µM (inactive)	> 100 µM (inactive)	> 100 µM (inactive)	41.7 µM (inactive)	60.8 µM (inactive)	29.8 µM (inactive)	15.5 µM (inactive)	23.8 µM (inactive)	20.1 µM (inactive)	> 100 µM (inactive)	19.2 µM (inactive)		> 100 µM (inactive)	> 69.3 µM (inactive)	> 100 µM (inactive)	17.3 µM (inactive)
O=[N+]([O-])/C(C(Cl)=C(Cl)Cl)=C(\N1CCCCC1)n1cncn1	20.4 µM (inactive)	15.8 µM (inactive)	16 µM	17.2 µM (inactive)	17.9 µM (inactive)	14.4 µM (inactive)	> 24.2 µM (inactive)	15.6 µM (inactive)	16.2 µM (inactive)	16.4 µM (inactive)	6.64 µM (inactive)	12.9 µM (inactive)	17.1 µM (inactive)	16.3 µM (inactive)	23 µM (inactive)	3.99 µM (inactive)	15.8 µM (inactive)	17.5 µM (inactive)	15.7 µM (inactive)	
CN(CCCCN(C)CCc1ccc(Cl)c(Cl)c1)CCCCN1CCCC1	1.25 µM (inactive)	1.63 µM (inactive)	1.69 µM	0.787 µM (active)	0.465 µM (active)	1.26 µM (inactive)	3.08 µM (inactive)	0.977 µM (active)	2.36 µM (inactive)	1.57 µM (inactive)	1.32 µM (inactive)	1.46 µM (inactive)	1.01 µM (active)	0.533 µM (active)	1.73 µM (inactive)		1.21 µM (inactive)	1.63 µM (inactive)	1.29 µM (inactive)	1.26 µM (inactive)
COc1cc2c3c(n(C)c(=O)c2cc1OC)-c1cc2c(cc1/C3=C\CCCI)OCO2	5.32 µM (inactive)	30.1 µM (inactive)	2.56 µM	2.61 µM (inactive)	19.3 µM (inactive)	> 70.8 µM (inactive)	0.238 µM (active)	6.75 µM (inactive)	> 4.65 µM (inactive)	> 53.5 µM (inactive)	10.6 µM (inactive)	0.776 µM (active)	3.94 µM (inactive)			0.239 µM (active)	0.533 µM (active)	> 100 µM (inactive)	18.1 µM (inactive)	
CC(=O)NC1C(OCc2ccccc2)OC(CO)C(O)C1OCC(=O)N1CCCC1C(=O)N[C@@H](CCC(=O)NCCNCCNc1c2ccccc2nc2cccc([N+](=O)[O-])c12)C(N)=O (some centres not stated)	2.14 µM (inactive)	7.57 µM (inactive)	2.11 µM	2.92 µM (inactive)	2.65 µM (inactive)	2.88 µM (inactive)	1.33 µM (inactive)	1.45 µM (inactive)	6.81 µM (inactive)	2.94 µM (inactive)	2.17 µM (inactive)	2.41 µM (inactive)	3.27 µM (inactive)	6.68 µM (inactive)	6.64 µM (inactive)		1.31 µM (inactive)	6.28 µM (inactive)	1.88 µM (inactive)	1.37 µM (inactive)
CC(=O)O[C@H]1CC[C@@]2(C)[C@@H](CC[C@@H]3[C@@H]2CC(=O)[C@@]2(C)[C@H]3C[C@@H]3CC(C)=CC(=O)[C@@H]32)C1	39.5 µM (inactive)	28.9 µM (inactive)	98.2 µM	29.7 µM (inactive)	58.6 µM (inactive)	43.1 µM (inactive)		39.5 µM (inactive)	> 100 µM (inactive)	44.1 µM (inactive)	30.2 µM (inactive)	36.2 µM (inactive)		> 100 µM (inactive)	30.1 µM (inactive)	23.5 µM (inactive)	> 100 µM (inactive)	62.1 µM (inactive)	58.5 µM (inactive)	
CC(=O)OCC(OC(C)=O)C(OC(C)=O)C(OC(C)=O)C(C=NN(C(C)=O)S(=O)(=O)c1ccc(/C=C2\NC(=O)N(C)C2=O)cc1)OC(C)=O (configuration not stated)	23.7 µM (inactive)	23.2 µM (inactive)	21.3 µM	42.7 µM (inactive)	33.1 µM (inactive)	32.6 µM (inactive)	10.6 µM (inactive)		37.8 µM (inactive)	27.9 µM (inactive)	13.4 µM (inactive)	26.2 µM (inactive)	26.7 µM (inactive)		33.7 µM (inactive)	11.8 µM (inactive)	26.4 µM (inactive)	44.8 µM (inactive)	29.3 µM (inactive)	
O=C1c2ccccc2C(=O)N1n1c(Cc2ccccc2)n[nH]c1=O	> 100 µM (inactive)	> 100 µM (inactive)	> 100 µM	> 100 µM (inactive)	> 100 µM (inactive)	> 100 µM (inactive)	> 100 µM (inactive)		> 100 µM (inactive)	> 100 µM (inactive)			> 100 µM (inactive)	> 100 µM (inactive)	> 100 µM (inactive)	> 100 µM (inactive)	> 100 µM (inactive)	> 100 µM (inactive)	> 100 µM (inactive)	> 100 µM (inactive)
O=C1CC(C(OCc2ccccc2)C(OCc2ccccc2)C(COCc2ccccc2)OCc2ccccc2)CC(=O)N1 (configuration not stated)	> 75 µM (inactive)	> 100 µM (inactive)	> 75 µM	> 75 µM (inactive)	> 75 µM (inactive)	> 75 µM (inactive)			> 75 µM (inactive)	> 75 µM (inactive)	42.9 µM (inactive) and 29.6 µM (inactive)	> 75 µM (inactive)	> 100 µM (inactive)	> 75 µM (inactive)		> 75 µM (inactive)	> 100 µM (inactive)	> 100 µM (inactive)	> 100 µM (inactive)	
